Experimental data published in ChEMBL document CHEMBL4725351, “Cyclic Derivative of Host-Defense Peptide IDR-1018 Improves Proteolytic Stability, Suppresses Inflammation, and Enhances In Vivo Activity” (J Med Chem, 2020).
≈ marks a conversion by molar mass, not a printed value. Calls of active or inactive are those of the source. No cut-off for these calls is given here. Where a SMILES comes first, the peptide text is derived from it. Bridges are numbered along the chain shown (N, C = ends).

Key:
Staphylococcus aureus [1] = experiment: Antibacterial activity against methicillin-resistant Staphylococcus aureus SAP0017 measured after overnight incubation by microtitre plate based spectrophotometric method; type: functional
Staphylococcus aureus [2] = experiment: Antibacterial activity against methicillin-resistant Staphylococcus aureus USA300 LAC measured after overnight incubation by microtitre plate based spectrophotometric method; type: functional
Pseudomonas aeruginosa [3] = experiment: Antibacterial activity against Pseudomonas aeruginosa PA14 measured after overnight incubation by microtitre plate based spectrophotometric method; type: functional
Pseudomonas aeruginosa [4] = experiment: Antibacterial activity against Pseudomonas aeruginosa PAO1 measured after overnight incubation by microtitre plate based spectrophotometric method; type: functional
Escherichia coli [5] = experiment: Antibacterial activity against Escherichia coli ATTC 489 measured after overnight incubation by microtitre plate based spectrophotometric method; type: functional
Acinetobacter baumannii [6] = experiment: Antibacterial activity against Acinetobacter baumannii 5015 measured after overnight incubation by microtitre plate based spectrophotometric method; type: functional
Acinetobacter baumannii [7] = experiment: Antibacterial activity against Acinetobacter baumannii 17918 measured after overnight incubation by microtitre plate based spectrophotometric method; type: functional
Klebsiella pneumoniae [8] = experiment: Antibacterial activity against Klebsiella pneumoniae ATTC 13883 measured after overnight incubation by microtitre plate based spectrophotometric method; type: functional
Staphylococcus aureus [9] = experiment: Antibiofilm activity against methicillin-resistant Staphylococcus aureus SAP0017 incubated for 24 hrs under shaking condition by turbidometric method; type: functional
Staphylococcus aureus [10] = experiment: Antibiofilm activity against methicillin-resistant Staphylococcus aureus USA300 LAC incubated for 24 hrs under shaking condition by turbidometric method; type: functional
Pseudomonas aeruginosa [11] = experiment: Antibiofilm activity against Pseudomonas aeruginosa PA14 incubated for 24 hrs under shaking condition by turbidometric method; type: functional
Pseudomonas aeruginosa [12] = experiment: Antibiofilm activity against Pseudomonas aeruginosa PAO1 incubated for 24 hrs under shaking condition by turbidometric method; type: functional
Escherichia coli [13] = experiment: Antibiofilm activity against Escherichia coli ATTC 489 incubated for 24 hrs under shaking condition by turbidometric method; type: functional
Acinetobacter baumannii [14] = experiment: Antibiofilm activity against Acinetobacter baumannii 5015 incubated for 24 hrs under shaking condition by turbidometric method; type: functional
Acinetobacter baumannii [15] = experiment: Antibiofilm activity against Acinetobacter baumannii 17918 incubated for 24 hrs under shaking condition by turbidometric method; type: functional
Klebsiella pneumoniae [16] = experiment: Antibiofilm activity against Klebsiella pneumoniae ATTC 13883 incubated for 24 hrs under shaking condition by turbidometric method; type: functional
Staphylococcus aureus [17] = experiment: Antibiofilm activity against methicillin-resistant Staphylococcus aureus SAP0017 assessed as reduction in biofilm biomass incubated overnight by crystal violet staining assay; type: functional
Staphylococcus aureus [18] = experiment: Antibiofilm activity against methicillin-resistant Staphylococcus aureus USA300 LAC assessed as reduction in biofilm biomass measured after overnight incubation by crystal violet staining assay; type: functional
Pseudomonas aeruginosa [19] = experiment: Antibiofilm activity against 24 hrs preformed Pseudomonas aeruginosa PA14 biofilm assessed as reduction in biofilm viability at 7.2 to 30.3 uM by TTC assay relative to control; type: functional; conditions: dose microM 7.2-30.3
Pseudomonas aeruginosa [20] = experiment: Antibiofilm activity against 24 hrs preformed Pseudomonas aeruginosa PAO1 biofilm assessed as reduction in biofilm viability at 7.2 to 30.3 uM by TTC assay relative to control; type: functional; conditions: dose microM 7.2-30.3
Escherichia coli [21] = experiment: Antibiofilm activity against 24 hrs preformed Escherichia coli ATTC 489 biofilm assessed as reduction in biofilm viability at 7.2 to 30.3 uM by TTC assay relative to control; type: functional; conditions: dose microM 7.2-30.3
Acinetobacter baumannii [22] = experiment: Antibiofilm activity against 24 hrs preformed Acinetobacter baumannii 5015 biofilm assessed as reduction in biofilm viability at 7.2 to 30.3 uM by TTC assay relative to control; type: functional; conditions: dose microM 7.2-30.3
Acinetobacter baumannii [23] = experiment: Antibiofilm activity against 24 hrs preformed Acinetobacter baumannii 17918 biofilm assessed as reduction in biofilm viability at 7.2 to 30.3 uM by TTC assay relative to control; type: functional; conditions: dose microM 7.2-30.3
Klebsiella pneumoniae [24] = experiment: Antibiofilm activity against 24 hrs preformed Klebsiella pneumoniae ATTC 13883 biofilm assessed as reduction in biofilm viability at 7.2 to 30.3 uM by TTC assay relative to control; type: functional; conditions: dose microM 7.2-30.3
Trypsin = Trypsin (Homo sapiens, UniProt P07477+P07478+P35030); experiment: Stability of the compound in pH 8.2 ammonium bicarbonate buffer assessed as trypsin (unknown origin)-mediated drug degradation at 20 ug/ml measured after 120 mins by RP-HPLC analysis; type: ADME, protein assay; conditions: trypsin in ammonium bicarbonate buffer, pH 8.2, at 20 µg/mL, read-out: Drug degradation
[25] = Aggregation property of the compound in water at 1 mg/ml by turbidimetric method; type: physicochemical; conditions: buffer
[26] = Aggregation property of the compound in saline at 1 mg/ml by turbidimetric method; type: physicochemical; conditions: buffer
[27] = Aggregation property of the compound in 5% dextrose at 1 mg/ml by turbidimetric method; type: physicochemical
[28] = Aggregation property of the compound in RPMI medium with 1% FBS at 1 mg/ml by turbidimetric method; type: physicochemical
[29] = Aggregation property of the compound in sodium citrate solution at 10 mM by turbidimetric method; type: physicochemical; conditions: 10000 µM
[30] = Aggregation property of the compound in sodium phosphate solution at 10 mM by turbidimetric method; type: physicochemical; conditions: 10000 µM
[31] = Aggregation property of the compound in sodium nitrate solution at 10 mM by turbidimetric method; type: physicochemical; conditions: 10000 µM
[32] = Aggregation of the compound in human PBMC assessed as amorphous morphology at 50 ug/ml measured after 4 hrs by microscopic analysis; type: ADME, tissue-based; conditions: dose 50 µg/ml
[33] = Cytotoxicity against human PBMC assessed as reduction in cell viability at 100 ug/ml measured after 24 hrs by LDH assay; type: tissue-based; conditions: dose 100 µg/ml
PBMC [34] = experiment: Immunomodulatory activity in human PBMC assessed as increase in MCP1 production at 25 ug/ml measured after overnight incubation by ELISA; type: functional, tissue-based; conditions: dose 25.0 µg/ml
PBMC [35] = experiment: Immunomodulatory activity in human PBMC assessed as change in TNFalpha production at 25 ug/ml measured after overnight incubation by ELISA; type: functional, tissue-based; conditions: dose 25.0 µg/ml
PBMC [36] = experiment: Immunomodulatory activity in human PBMC assessed as increase in IL-1RA production at 25 ug/ml measured after overnight incubation by ELISA; type: functional, tissue-based; conditions: dose 25.0 µg/ml
PBMC [37] = experiment: Immunomodulatory activity in human PBMC assessed as reduction in LPS-induced TNFalpha production at 25 ug/ml measured after overnight incubation by ELISA; type: functional, tissue-based; conditions: dose 25.0 µg/ml
[38] = Immunomodulatory activity in human PBMC assessed as increase in LPS-induced MCP1 production at 25 ug/ml measured after overnight incubation by ELISA; type: functional; conditions: dose 25 µg/ml
[39] = Immunomodulatory activity in human PBMC assessed as increase in LPS-induced IL10 production at 25 ug/ml measured after overnight incubation by ELISA; type: functional; conditions: dose 25 µg/ml
[40] = Immunomodulatory activity in human PBMC assessed as increase in LPS-induced IL1RA production at 25 ug/ml measured after overnight incubation by ELISA; type: functional; conditions: dose 25 µg/ml
[41] = Toxicity in CD1 mouse assessed as redness under the skin at 10 mg/kg, sc measured after 16 hrs; type: organism-based; conditions: in vivo
Staphylococcus aureus [42] = experiment: Antibacterial activity against Staphylococcus aureus USA300 LAC infected in CD1 mouse assessed as reduction in dermonecrosis at 7.5 mg/kg, sc administered at infection site measured after 3 days by caliper method relative to control; type: functional; parameters: scale not given: the % may be the effect or the level left; conditions: time 3 day
Staphylococcus aureus [43] = experiment: Antibacterial activity against Staphylococcus aureus USA300 LAC infected in CD1 mouse assessed as dermonecrosis area at 7.5 mg/kg, sc administered at infection site measured after 3 days by caliper method (Rvb > 75 mm2); type: functional; conditions: time 3 day
Staphylococcus aureus [44] = experiment: Antibacterial activity against Staphylococcus aureus USA300 LAC infected in CD1 mouse assessed as reduction in bacterial load at 7.5 mg/kg, sc administered at infection site measured after 3 days by colony counting method relative to control; type: functional; conditions: time 3 day

Compound: CC[C@H](C)[C@@H]1NC(=O)[C@H](CCCNC(=N)N)NC(=O)[C@H](C(C)C)NC(=O)[C@H](C)NC(=O)[C@H](C(C)C)NC(=O)[C@H]([C@@H](C)CC)NC(=O)[C@H](CC(C)C)NC(=O)[C@H](CCCNC(=N)N)NC(=O)[C@H](C(C)C)NC(=O)CC[C@@H](C(N)=O)NC(=O)[C@H](CCCNC(=N)N)NC(=O)[C@H](CCCNC(=N)N)NC(=O)[C@H](Cc2c[nH]c3ccccc23)NC1=O (VRLIVAVRIWRRE-NH2; lactam N-13)
- MIC (Staphylococcus aureus [1]): 15.1 µM (≈ 24.9 µg/mL)
- MIC (Staphylococcus aureus [2]): 15.1 µM (≈ 24.9 µg/mL)
- MIC (Pseudomonas aeruginosa [3]): 30.3 µM (≈ 49.9 µg/mL)
- MIC (Pseudomonas aeruginosa [4]): 30.3 µM (≈ 49.9 µg/mL)
- MIC (Escherichia coli [5]): 30.3 µM (≈ 49.9 µg/mL)
- MIC (Acinetobacter baumannii [6]): 15.1 µM (≈ 24.9 µg/mL)
- MIC (Acinetobacter baumannii [7]): 15.1 µM (≈ 24.9 µg/mL)
- MIC (Klebsiella pneumoniae [8]): 15.1 µM (≈ 24.9 µg/mL)
- MBEC (Staphylococcus aureus [9]): 9.7 µM
- MBEC (Staphylococcus aureus [10]): 7.2 µM
- MBEC (Pseudomonas aeruginosa [11]): 38.8 µM
- MBEC (Pseudomonas aeruginosa [12]): 38.8 µM
- MBEC (Escherichia coli [13]): 38.8 µM
- MBEC (Acinetobacter baumannii [14]): 15.1 µM
- MBEC (Acinetobacter baumannii [15]): 15.1 µM
- MBEC (Klebsiella pneumoniae [16]): 9.7 µM
- MBIC (Staphylococcus aureus [17]): 7.2 µM
- MBIC (Staphylococcus aureus [18]): 7.2 µM
- Activity (Pseudomonas aeruginosa [19]): 70%
- Activity (Pseudomonas aeruginosa [20]): 70%
- Activity (Escherichia coli [21]): 70%
- Activity (Acinetobacter baumannii [22]): 70%
- Activity (Acinetobacter baumannii [23]): 70%
- Activity (Klebsiella pneumoniae [24]): 70%
- metabolised at 2 h, 20 ug/ml (Trypsin): 30%
- Activity [25]: Not Active
- Activity [26]: Not Active
- Activity [27]: Not Active
- Activity [28]: Active
- Activity [29]: Not Active
- Activity [30]: Not Active
- Activity [31]: Not Active
- Activity [32]: Not Active
- Activity [33]: Toxic
- Activity (PBMC [34]): Active
- Activity (PBMC [35]): inactive
- Activity (PBMC [36]): Active
- Activity (PBMC [37]): Active
- Activity [38]: 35%
- Activity [39]: 30%
- Activity [40]: 35%
- Activity [41]: Toxic
- Activity (Staphylococcus aureus [42]): 90%
- Activity (Staphylococcus aureus [43]): 5 mm2
- fold change (FC) (Staphylococcus aureus [44]): 1000
